Measured values from article PMC6002953 (ACS chemical neuroscience, 2017).
Several values for one entry are separate records, joined by “and”; a condition that tells them apart may be missing. Equal entries are not always repeated.

Tests used:
MDCK-MDR1 monolayers = assay: BBB permeability, bidirectional transport through MDCK-MDR1 monolayers; settings: 10 μM test article, single determination
human OX1 receptor = molecular target: T1, human OX1 receptor (Homo sapiens, UniProt O43613); assay: Calcium mobilization Ke assay, OX1; assay type: cell-based
T1 sequence (O43613 1-425): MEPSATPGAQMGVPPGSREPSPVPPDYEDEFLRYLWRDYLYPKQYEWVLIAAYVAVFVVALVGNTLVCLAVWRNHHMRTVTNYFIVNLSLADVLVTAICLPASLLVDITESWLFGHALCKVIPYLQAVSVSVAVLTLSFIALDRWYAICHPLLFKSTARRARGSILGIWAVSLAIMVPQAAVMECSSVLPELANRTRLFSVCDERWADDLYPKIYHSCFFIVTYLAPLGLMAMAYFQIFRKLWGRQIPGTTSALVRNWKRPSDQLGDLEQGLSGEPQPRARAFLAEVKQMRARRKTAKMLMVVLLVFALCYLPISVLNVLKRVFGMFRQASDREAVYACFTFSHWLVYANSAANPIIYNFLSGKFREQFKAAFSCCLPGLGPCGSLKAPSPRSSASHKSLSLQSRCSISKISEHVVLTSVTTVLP

human OX2 receptor = molecular target: T2, human OX2 receptor (Homo sapiens, UniProt O43614); assay: Calcium mobilization Ke assay, OX2; assay type: cell-based
T2 sequence (O43614 1-444): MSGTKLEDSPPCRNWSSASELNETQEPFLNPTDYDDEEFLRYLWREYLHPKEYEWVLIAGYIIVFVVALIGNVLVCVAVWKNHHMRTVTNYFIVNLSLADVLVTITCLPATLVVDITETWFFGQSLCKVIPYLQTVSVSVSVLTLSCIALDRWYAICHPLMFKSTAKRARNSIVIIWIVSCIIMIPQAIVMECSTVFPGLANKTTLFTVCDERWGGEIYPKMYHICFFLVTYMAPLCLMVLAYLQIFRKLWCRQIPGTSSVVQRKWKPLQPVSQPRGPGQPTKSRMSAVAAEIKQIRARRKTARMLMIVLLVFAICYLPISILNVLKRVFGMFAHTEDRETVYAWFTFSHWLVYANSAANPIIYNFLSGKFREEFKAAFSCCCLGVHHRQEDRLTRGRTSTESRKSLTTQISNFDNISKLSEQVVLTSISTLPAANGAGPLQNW

[1] = Kinetic solubility in PBS pH 7.4; assay type: physicochemical; settings: pH 7.4, aqueous buffer, kinetic from dmso stock
P-glycoprotein (MDR1) = assay: BBB permeability, bidirectional transport through MDCK-MDR1 monolayers; settings: dog, MDCK-MDR1, pH 7.4

| SMILES | Papp A-to-B (MDCK-MDR1 monolayers; MDCK-MDR1, apical-to-basolateral) | Papp B-to-A (MDCK-MDR1 monolayers; MDCK-MDR1, basolateral-to-apical) | Kd (human OX1 receptor) [nM] | selectivity over OX2 (human OX1 receptor; OX1 over OX2, calcium mobilization assays) | OX2/OX1 (human OX1 receptor; ratio of Ke values OX2/OX1) | Kd (human OX2 receptor) [nM] | solubility kinetic at 2 h [1] [µM] | Papp A→B at 90 min, 10 μM (P-glycoprotein (MDR1)) [×10⁻⁶ cm/s] | Papp B→A at 90 min, 10 μM (P-glycoprotein (MDR1)) [×10⁻⁶ cm/s] | efflux ratio at 90 min, 10 μM (P-glycoprotein (MDR1)) |
| --- | --- | --- | --- | --- | --- | --- | --- | --- | --- | --- |
| COc1ccc(CC2c3cc(OCC(F)(F)F)c(OC)cc3CCN2CC(=O)NCc2cccnc2)cc1OC (stereo not shown) [Compound 5, reference compound] | 12.2 10^−6 cm/sec | 36.2 10^−6 cm/sec |  |  |  |  |  |  |  |  |
| COc1ccc(CC2c3cc(N(C)C)c(OC)cc3CCN2CC(=O)NCc2cccnc2)cc1N(C)C (stereo not shown) [Compound 44, 2-[7-(Dimethylamino)-1-{[3-(dimethylamino)-4-methoxyphenyl]methyl}-6-methoxy-1,2,3,4-tetrahydroisoquinolin-2-yl]-N-(pyridin-3-ylmethyl)acetamide] |  |  | 5.7 ± 1 | > 1,760 fold and > 1,000 fold | >1,760 | > 10000 | > 200 | 14.7 | 47.8 | 3.3 |
